Reference: US20230201285A1, “GRANULAR C[…] WATER DISPERSIBLE CANNABINOIDS AND METHODS OF MAKING THE SAME” (priority 2021, published 2023)

Test: Emulsion formation of CBD powder in water with emulsifier or co-solvent
Format: physicochemical
Details: 200 mg CBD powder, 40 mL water, shaken five minutes
Procedure: A study was conducted with several different emulsifiers or co-solvents added to water and CBD powder.
In a first experiment, five 50 mL centrifuge tubes were each filled with 40 mL of water and 200 mg of CBD powder. Then, increasing amounts of PEG-400 (65 mg, 130 mg, 195 mg, 260 mg, and 650 mg) were added respectively to each centrifuge tube, which were then placed on a tabletop shaker and mechanically shaken on high for five minutes. […] No emulsion, however, was immediately formed after mixing.
In a second experiment, four 50 mL centrifuge tubes were each filled with 40 mL of water and 200 mg of CBD powder. Then, increasing amounts of TWEEN 80 (160 mg, 320 mg, 800 mg, and 1600 mg) were added respectively to each centrifuge tube, which were then placed on a tabletop shaker and mechanically shaken on high for five minutes. […] Further, CBD powder was still floating around in each tube.
(§1) In a third experiment, four 50 mL centrifuge tubes were each filled with 40 mL of water and 200 mg of CBD powder. Then, increasing amounts of sodium dodecyl sulfate (SDS) (10 mg, 25 mg, 50 mg, and 100 mg) were added respectively to each centrifuge tube, which were then placed on a tabletop shaker and mechanically shaken on high for five minutes. […] Further, CBD residue was observed on the bottom of each tube.
as §1, with “Finally, in” for “In”, “fourth” for “third”, “glycerol monostearate (GMS)” for “sodium dodecyl sulfate (SDS)”, “bottom and sides” for “bottom”

In the case of `C=C(C)[C@@H]1CCC(C)=C[C@H]1c1c(O)cc(CCCCC)cc1O` [CBD powder, cannabidiol], the emulsion formation (GMS 10-100 mg) is reported as “no emulsion was formed in any tube”, the emulsion formation (PEG-400 65-650 mg) is reported as “No emulsion” and the emulsion formation (SDS 10-100 mg) is reported as “no emulsion was formed in any tube”. For the same molecule, the emulsion formation (TWEEN 80 160-1600 mg) was “no emulsion was formed in any tube”.
